Each block holds one compound with its values, some of them ahead of it.
Legend:
[1] = system: electrically (6 Hz) induced seizures; assay: 6-Hz seizure test; assay type: in vivo; settings: FIG. 3; mice
Procedure: (§1) Male NIH Swiss mice (25-30 g) were housed two per cage. Animals were kept in a vivarium (temperature 22-26° C.; humidity 40-50%) with an artificial 12-h light/dark cycle and free access to food and water. Animals were allowed to acclimate to the vivarium for at least 5 days. The experiments were performed during the light phase of the light/dark cycle (between 9:30 AM and 3:30 PM), after at least a 30-min period of acclimation to the experimental room. Animals were maintained in facilities fully accredited by the Association for Assessment and Accreditation of Laboratory Animal Care, and experiments were performed under protocols approved by the Animal Care and Use Committee of the National Institute of Neurological Disorders and Stroke in strict compliance with the Guide for the Care and Use of Laboratory Animals of the National Research Council (National Academy Press, Washington, D.C.
(§2) Solutions of the steroids were made fresh daily in 40% hydroxypropyl-β-cyclodextrin in sterile 0.9% saline. Further dilutions were made using sterile saline. The steroids were injected intraperitoneally. The convulsant agent pentylenetetrazol (PTZ; Sigma-Aldrich) was dissolved in saline immediately before use. All drug solutions were administered in a volume equaling 0.01 mL/g of the animal's body weight. […]

[2] = system: elevated zero maze behaviour; assay: Elevated zero maze test of anxiolytic activity; assay type: in vivo; settings: therapeutic doses, mice
Procedure: as §1, with “D.C. […]” for “D.C.”
Anxiolytic activity was assessed with the elevated zero-maze as described (Kaminski et al., 2006). […] Five-min test sessions were video-recorded with a tripod-mounted camcorder. Percent time in open areas and number of entries into open areas were scored from the taped records using Observer 3.0 software (Noldus, Wageningen, The Netherlands). […] Dose-response data were analyzed by one-way analysis of variance. […]

[3] = system: GABAA receptor; assay: [3H]Flunitrazepam binding assay (enhancement) in rat brain cerebral cortex homogenates; settings: for [3H]Flunitrazepam Emax: percentage of Emax determined for allopregnanolone; for EC50: rat cortical membranes, 1.0 μM GABA, 1.0 nM [3H]flunitrazepam, mean±SD
Procedure: (§3) Tissue preparation. Rat brain cerebral cortex homogenates and the binding assays were conducted essentially as described (Carter et al., 1997). Briefly, adult male Sprague-Dawley rats (Charles River Laboratories, Raleigh, N.C.) were killed by excess CO2 asphyxiation, decapitated, and their brain rapidly removed and frozen on dry ice before being stored −76° C. The frozen cortices were placed in 10 volumes of an ice-cold 0.32 M sucrose solution and homogenized with a Teflon-glass homogenizer. The homogenate was centrifuged at 1500×g (10 min at 4° C.). The supernatant was retained and centrifuged at 10,000×g (20 min at 4° C.), yielding the P2 pellet. The P2 pellet was resuspended in an equal volume of a 50 mM Na+/K+ phosphate buffer containing 200 mM NaCl (pH 7.4) and centrifuged at 10,000×g (10 min at 4° C.). The pellet was washed twice more, resuspended in 1/10 volume of buffer and stored at −76° C. until the time of assay.
[^3H]Flunitrazepam binding assay. This assay was conducted as described for the [^35S]TBPS assay except that the assays contained 20 μg tissue homogenate, 1.0 μM GABA and 1.0 nM [^3H]flunitrazepam (74.1-85 Ci/mmol). Clonazepam (1.0 μM) was used to determine nonspecific binding.

[4] = biological target: GABAA receptor; assay: [35S]TBPS binding assay in rat brain cerebral cortex homogenates; settings: rat cortical membranes, 6.25 μM GABA, 2 nM [35S]TBPS; mean±SD
Procedure: as §3
[^35S]TBPS binding assays. These assays were carried out in 1.4 mL polypropylene tubes (Matrix Technologies, Hudson, N.H.). In a final volume of 0.5 mL, each tube contained 100 μL cortical membrane suspension (40 μg of protein, added last) 2 nM [^35S]TBPS (64-165 Ci/mmol), 6.25 μM GABA and one of six different concentrations of test compound added as 5 μL in 100% DMSO (1% final DMSO concentration). The test compounds were added to the assay tubes using a BiomekFX automated liquid handler with 96-well head (Beckman-Coulter, Fullerton, Calif.). Nonspecific binding was determined in the presence of 200 μM picrotoxin. The assays were incubated for 2 h at RT before being terminated by vacuum filtration through 96-well GF/B glass filter plates using a 96-well harvester (Brandel Scientific, Gaithersburg, Md.). Prior to harvesting, the filter plates were pre-soaked for 20 min in buffer containing 0.15% BSA and 0.1% PEI. The radioactivity remaining on the filter was determined in a TopCount 12-detector scintillation counter (Packard Instruments, Meriden, Conn.) using 20 μl of MicroScint20 (Packard Instruments) per well and standard liquid scintillation counting techniques.

[5] = system: pentylenetetrazole (PTZ) induced seizures; assay: PTZ seizure test; assay type: in vivo; settings: FIG. 3; mice
Procedure: as §1
as §2, with “use.” for “use. All drug solutions were administered in a volume equaling 0.01 mL/g of the animal's body weight.”
The PTZ seizure test was carried out as described (Kokate et al., 1994). […] Mice failing to show clonic seizures lasting longer than 5 s were scored as protected. […]

- melting point: 230 to 232 °C (dec.)
Compound: CN(C)c1ccc([C@H]2C[C@]3(C)[C@@H](O)CC[C@H]3[C@@H]3CC[C@H]4C[C@](C)(O)CC[C@@H]4[C@H]32)cc1.Cl

Compound: C[C@]12CC[C@@H](O)C[C@@H]1CC[C@@H]1[C@@H]2CC[C@]2(C)[C@@H]([N+](=O)[O-])CC[C@@H]12 [Compound A2-A, 17β-Nitro-5α-androstan-3α-ol]
- reduction of electrically (6 Hz) induced seizures [1]: reduce
- percentage of time spent in open arms of the maze ([2]; FIG. 1A): significantly enhanced
- number of entries (open arms) ([2]; FIG. 1B): significantly enhanced
- [3H]Flunitrazepam Emax [3]: 103%
- EC50 [3]: 24 ± 2.5 nM
- IC50 [4]: 13 ± 0.13 nM
- reduction of chemically (PTZ) induced seizures [5]: reduce

Compound: C[C@@]1(O)CC[C@@]2(C)[C@@H](CC[C@@H]3[C@@H]2CC[C@]2(C)[C@@H]([N+](=O)[O-])CC[C@@H]32)C1 [Compound A2-B, 3α-Hydroxy-3β-methyl-17β-nitro-5α-androstane]
- [3H]Flunitrazepam Emax [3]: 99.1%
- EC50 [3]: 33.5 ± 4.9 nM
- IC50 [4]: 17.9 ± 6.19 nM
- melting point: 211 to 213 °C

Compound: CS[C@H]1CCC2C3CC[C@H]4C[C@H](O)CC[C@]4(C)C3CC[C@@]21C (stereo partly drawn) [Compound B-5, 3α-Hydroxy-17β-thiomethyl-5α-androstane]
- [3H]Flunitrazepam Emax [3]: 131.7%
- EC50 [3]: 75.9 ± 12.4 nM
- IC50 [4]: 32 ± 5.19 nM
- melting point: 151 to 153 °C

Compound: CN(C)c1ccc([C@H]2C[C@@]3(C)C(CC[C@@H]3[N+](=O)[O-])C3CC[C@H]4C[C@](C)(O)CCC4C32)cc1 (stereo partly drawn) [Compound C-8, 11β-[4-(N,N-Dimethylamino)phenyl]-3α-hydroxy-3β-methyl-5α-17β-nitro-estrane]
- [3H]Flunitrazepam Emax [3]: 135%
- EC50 [3]: 39.5 ± 20.6 nM
- IC50 [4]: 9.79 ± 1.93 nM

From patent US8575375B2, “Androstane and pregnane steroids with potent allosteric GABA receptor chloride ionophore modulating properties” (Research Triangle Institute, priority 2007, dated 2013)
